Measured values as given in the NIST ThermoML archive (doi:10.1021/acs.jced.9b00237).
Numbers after ± are expanded uncertainties.

Test: xn = mol fraction of the nth substance listed
Settings: 100 kPa, Liquid; for viscosity: Concentric cylinders viscometry; for mass density: Vibrating tube method

C[N+](C)(C)CCO.[Cl-] [choline chloride] + Oc1ccccc1
Settings | mass density, 293.15 K [kg/m3] | mass density, 303.15 K [kg/m3] | mass density, 313.15 K [kg/m3] | mass density, 323.15 K [kg/m3] | mass density, 333.15 K [kg/m3] | viscosity, 293.15 K [mPa·s] | viscosity, 303.15 K [mPa·s] | viscosity, 313.15 K [mPa·s] | viscosity, 323.15 K [mPa·s] | viscosity, 333.15 K [mPa·s]
x1 = 0.2 | 1093 ± 2 | 1087 ± 2 | 1080 ± 2 | 1073 ± 2 | 1067 ± 2 | 39 ± 1.7 | 24.67 ± 0.88 | 16.69 ± 0.58 | 11.83 ± 0.4 | 8.825 ± 0.32
x1 = 0.25 | 1096 ± 2 | 1089 ± 2 | 1083 ± 2 | 1077 ± 2 | 1071 ± 2 | 58.16 ± 1.9 | 35.76 ± 1.4 | 23.53 ± 0.84 | 16.42 ± 0.56 | 12.02 ± 0.36
